Holding throughout (experiment): [3H]flumazenil competition binding, HEK293 cell membranes
For test [1], the target named is T1, human GABA A receptor α5βγ2 (Homo sapiens, UniProt P18507+P31644).
T1 construct: expressed in transfected cells; host or cells: HEK293
The procedure: (§1) The affinity of compounds at GABA A receptor subtypes was measured by competition for [^3H]flumazenil (85 Ci/mmol; Roche) binding to HEK293 cells expressing rat (stably transfected) or human (transiently transfected) receptors of composition α1β3γ2, α2β3γ2, α3β3γ2 and α5βγ2.
(§2) Cell pellets were suspended in Krebs-tris buffer (4.8 mM KCl, 1.2 mM CaCl2, 1.2 mM MgCl2, 120 mM NaCl, 15 mM Tris; pH 7.5; binding assay buffer), homogenized by polytron for ca. 20 sec on ice and centrifuged for 60 min at 4° C. (50000 g; Sorvall, rotor: SM24=20000 rpm). The cell pellets were resuspended in Krebs-tris buffer and homogenized by polytron for ca. 15 sec on ice. Protein was measured (Bradford method, Bio-Rad) and aliquots of 1 mL were prepared and stored at −80° C.
(§3) Radioligand binding assays were carried out in a volume of 200 μL (96-well plates) which contained 100 μL of cell membranes, [^3H]flumazenil at a concentration of 1 nM for α1, α2, α3 subunits and 0.5 nM for α5 subunits and the test compound in the range of 10^−10-3×10^−6 M. Nonspecific binding was defined by 10^−5 M diazepam and typically represented less than 5% of the total binding. Assays were incubated to equilibrium for 1 hour at 4° C. and harvested onto GF/C uni-filters (Packard) by filtration using a Packard harvester and washing with ice-cold wash buffer (50 mM Tris; pH 7.5). After drying, filter-retained radioactivity was detected by liquid scintillation counting. Ki values were calculated using Excel-Fit (Microsoft) and are the means of two determinations.

Test [2] addresses T2, human GABA A receptor α2β3γ2 (Homo sapiens, UniProt P18507+P47869).
T2 construct: expressed in transfected cells; host or cells: HEK293
How it is done:
as §1, §2, §3

The target in test [3] is T3, human GABA A receptor α3β3γ2 (Homo sapiens, UniProt P18507+P34903).
T3 construct: expressed in transfected cells; host or cells: HEK293
The procedure: as §1, §2, §3

The target in test [4] is T4, human GABA A receptor α1β3γ2 (Homo sapiens, UniProt P14867+P18507).
T4 construct: expressed in transfected cells; host or cells: HEK293
The procedure:
as §1, §2, §3

Setting [5] is: human α5βγ2, transiently transfected HEK293, 0.5 nM [3H]flumazenil, mean of two determinations, read-out: Ki[nM] hα5.
Where [6] appears, read: human α2β3γ2, transiently transfected HEK293, 1 nM [3H]flumazenil, mean of two determinations, read-out: Ki[nM] hα2.
The mark [7] stands for this setting: human α3β3γ2, transiently transfected HEK293, 1 nM [3H]flumazenil, mean of two determinations, read-out: Ki[nM] hα3.
Where [8] appears, read: human α1β3γ2, transiently transfected HEK293, 1 nM [3H]flumazenil, mean of two determinations, read-out: Ki[nM] hα1.

Where two headings read alike, the source gives them in different places. Where only a bound is given, the exact number is not on record here.

As to `FCc1ncn2c1Cn1ncnc1-c1cc(Cl)ccc1-2` [Example 1, 3-Chloro-10-fluoromethyl-9H-imidazo[1,5-a][1,2,4]triazolo[1,5-d][1,4]benzodiazepine], the Ki in test [1] was 9.4 nM; in test [2] it was 67 nM; in test [3], 40 nM; in test [4], 59.1 nM.
With `FC(F)c1ncn2c1Cn1ncnc1-c1cc(Cl)ccc1-2` [Example 2, 3-Chloro-10-difluoromethyl-9H-imidazo[1,5-a][1,2,4]triazolo[1,5-d][1,4]benzodiazepine], the Ki was determined as 5.6 nM in test [1], 81.3 nM in test [2], 47.9 nM in test [3] and 52.9 nM in test [4].
The matching figures for `FCc1ncn2c1Cn1ncnc1-c1cc(F)ccc1-2` [Example 3, 3-Fluoro-10-fluoromethyl-9H-imidazo[1,5-a][1,2,4]triazolo[1,5-d][1,4]benzodiazepine]: 9.1 nM, 25.4 nM, 26.2 nM and 49.9 nM.
Take `Fc1ccc2c(c1)-c1ncnn1Cc1c(C(F)F)ncn1-2` [Example 4, 3-Fluoro-10-difluoromethyl-9H-imidazo[1,5-a][1,2,4]triazolo[1,5-d][1,4]benzodiazepine]: the Ki in test [1] was 6.8 nM; in test [2], 14.4 nM; in test [3], 15.6 nM; in test [4] it was 34.4 nM.
As to `Fc1ccc2c(c1)-c1ncnn1Cc1c(C(F)(F)F)ncn1-2` [Example 5, 3-Fluoro-10-trifluoromethyl-9H-imidazo[1,5-a][1,2,4]triazolo[1,5-d][1,4]benzodiazepine], the Ki in test [1] came to 7 nM; in test [2] it was 23.9 nM; in test [3], 27.7 nM; in test [4] it was 39 nM.
Take `FCc1ncn2c1Cn1ncnc1-c1cc(Br)ccc1-2` [Example 6, 3-Bromo-10-fluoromethyl-9H-imidazo[1,5-a][1,2,4]triazolo[1,5-d][1,4]benzodiazepine]: the Ki worked out at 8.7 nM in test [1], 261 nM in test [2], 108 nM in test [3] and 215 nM in test [4].
In the case of `FC(F)c1ncn2c1Cn1ncnc1-c1cc(Br)ccc1-2` [Example 7, 3-Bromo-10-difluoromethyl-9H-imidazo[1,5-a][1,2,4]triazolo[1,5-d][1,4]benzodiazepine], the Ki in test [1] (setting [5]) was 4.6 nM; in test [2] (setting [6]), 185 nM; in test [3] (setting [7]), 79.6 nM; in test [4] (setting [8]), 174 nM.
On to `FCc1ncn2c1Cn1ncnc1-c1cc(C3CC3)ccc1-2` [Example 8, 3-Cyclopropyl-10-fluoromethyl-9H-imidazo[1,5-a][1,2,4]triazolo[1,5-d][1,4]benzodiazepine], for which the Ki in test [1] is 14.7 nM; in test [2] it was 276 nM; in test [3], 270 nM; in test [4], 272 nM.
For `FC(F)c1ncn2c1Cn1ncnc1-c1cc(C3CC3)ccc1-2` [Example 9, 3-Cyclopropyl-10-difluoromethyl-9H-imidazo[1,5-a][1,2,4]triazolo[1,5-d][1,4]benzodiazepine], the Ki in test [1] was determined as 13.3 nM; in test [2] (setting [6]), 160 nM; in test [3] (setting [7]), 192 nM; in test [4] (setting [8]), 216 nM.
As for `CCc1ccc2c(c1)-c1ncnn1Cc1c(C(F)F)ncn1-2` [Example 10, 10-Difluoromethyl-3-ethyl-9H-imidazo[1,5-a][1,2,4]triazolo[1,5-d][1,4]benzodiazepine], the Ki in test [1] was 31.7 nM; in test [2] (setting [6]), 624 nM; in test [3] (setting [7]), 480 nM; in test [4] (setting [8]) it was 272 nM.
`FC(F)c1ncn2c1Cn1ncnc1-c1cc(Cc3ccccc3)ccc1-2` [Example 11, 3-Benzyl-10-difluoromethyl-9H-imidazo[1,5-a][1,2,4]triazolo[1,5-d][1,4]benzodiazepine]: the Ki in test [1] amounted to 26.4 nM; in test [2] (setting [6]) it was 904 nM; in test [3] (setting [7]), 488 nM; in test [4] (setting [8]), 455 nM.
As for `C#Cc1ccc2c(c1)-c1ncnn1Cc1c(C(F)F)ncn1-2` [Example 12, 10-Difluoromethyl-3-ethynyl-9H-imidazo[1,5-a][1,2,4]triazolo[1,5-d][1,4]benzodiazepine], the Ki is 16.9 nM in test [1], 416 nM in test [2] (setting [6]), 512 nM in test [3] (setting [7]) and 1460 nM in test [4] (setting [8]).
In the case of `N#Cc1ccc2c(c1)-c1ncnn1Cc1c(C(F)F)ncn1-2` [Example 13, 3-Cyano-10-difluoromethyl-9H-imidazo[1,5-a][1,2,4]triazolo[1,5-d][1,4]benzodiazepine], the Ki in test [1] amounted to 16.5 nM; in test [2], 246 nM; in test [3], 106 nM; in test [4] it was 246 nM.
For `CC(F)(F)c1ncn2c1Cn1ncnc1-c1cc(F)ccc1-2` [Example 14, 10-(1,1-Difluoro-ethyl)-3-fluoro-9H-imidazo[1,5-a][1,2,4]triazolo[1,5-d][1,4]benzodiazepine], the Ki stood at 26.6 nM in test [1], 98.8 nM in test [2], 73.5 nM in test [3] and 163 nM in test [4] (setting [8]).
`CCC(F)(F)c1ncn2c1Cn1ncnc1-c1cc(F)ccc1-2` [Example 15, 10-(1,1-Difluoro-propyl)-3-fluoro-9H-imidazo[1,5-a][1,2,4]triazolo[1,5-d][1,4]benzodiazepine]: the Ki was determined as 3.2 nM in test [1], 11.3 nM in test [2], 8.9 nM in test [3] and 15 nM in test [4].
On to `FC(F)c1ncn2c1Cn1ncnc1-c1ccccc1-2` [Example 16, 10-Difluoromethyl-9H-imidazo[1,5-a][1,2,4]triazolo[1,5-d][1,4]benzodiazepine], for which the Ki in test [1] turned out to be 1.6 nM; in test [2], 13.9 nM; in test [3] it was 10.5 nM; in test [4], 28.3 nM.
With `FC(F)c1ncn2c1Cn1ncnc1-c1cc(N3CCOCC3)ccc1-2` [Example 17, 3-Morpholin-4-yl-10-difluoromethyl-9H-imidazo[1,5-a][1,2,4]triazolo[1,5-d][1,4]benzodiazepine], the Ki is 272 nM in test [1] (setting [5]), above 3160 nM in test [2] (setting [6]), above 3160 nM in test [3] (setting [7]) and 1870 nM in test [4] (setting [8]).
For the compound `CCC(F)c1ncn2c1Cn1ncnc1-c1cc(Br)ccc1-2` (stereo not drawn) [Example 18, 3-Bromo-10-(1-fluoro-propyl)-9H-imidazo[1,5-a][1,2,4]triazolo[1,5-d][1,4]benzodiazepine], the Ki is 37.5 nM in test [1], 764 nM in test [2] (setting [6]), 650 nM in test [3] (setting [7]) and 787 nM in test [4] (setting [8]).
For `CCC(F)(F)c1ncn2c1Cn1ncnc1-c1cc(Br)ccc1-2` [Example 19, 3-Bromo-10-(1,1-difluoro-propyl)-9H-imidazo[1,5-a][1,2,4]triazolo[1,5-d][1,4]benzodiazepine], the Ki worked out at 6.4 nM in test [1], 147 nM in test [2] (setting [6]), 77.2 nM in test [3] and 32.9 nM in test [4].
Regarding `Cc1nc2n(n1)Cc1c(CF)ncn1-c1ccc(Cl)cc1-2` [Example 20, 3-Chloro-10-fluoromethyl-6-methyl-9H-imidazo[1,5-a][1,2,4]triazolo[1,5-d][1,4]benzodiazepine], the Ki in test [1] was determined as 2.5 nM; in test [2] it was 181 nM; in test [3] it was 117 nM; in test [4], 50.1 nM.
In the case of `COc1ccc(-c2nc3n(n2)Cc2c(CF)ncn2-c2ccc(Cl)cc2-3)cc1OC` [Example 21, 3-Chloro-6-(3,4-dimethoxyphenyl)-10-fluoromethyl-9H-imidazo[1,5-a][1,2,4]triazolo[1,5-d][1,4]benzodiazepine], the Ki is 152 nM in test [1] (setting [5]), above 3160 nM in test [2] (setting [6]), above 3160 nM in test [3] (setting [7]) and above 3160 nM in test [4] (setting [8]).
